Assay results taken from ChEMBL document CHEMBL4043212, “Design, synthesis and biological evaluation of 1,3-diphenylbenzo[f][1,7]naphthyrdines” (2017).

Assays:
[1] = tested on: PC-3; experiment: Cytotoxicity against human PC3 cells assessed as inhibition of cell growth incubated for 72 hrs by SRB assay; format: functional
[2] = tested on: MDA-MB-231; experiment: Cytotoxicity against human MDA-MB-231 cells assessed as inhibition of cell growth incubated for 72 hrs by SRB assay; format: functional
[3] = tested on: NUGC-3; experiment: Cytotoxicity against human NUGC3 cells assessed as inhibition of cell growth incubated for 72 hrs by SRB assay; format: functional
[4] = tested on: ACHN; experiment: Cytotoxicity against human ACHN cells assessed as inhibition of cell growth incubated for 72 hrs by SRB assay; format: functional
[5] = tested on: NCI-H23; experiment: Cytotoxicity against human NCI-H23 cells assessed as inhibition of cell growth incubated for 72 hrs by SRB assay; format: functional
[6] = tested on: HCT-15; experiment: Cytotoxicity against human HCT15 cells assessed as inhibition of cell growth incubated for 72 hrs by SRB assay; format: functional
[7] = molecular target: DNA topoisomerase 2-alpha (Homo sapiens) (UniProt P11388); experiment: Potency index, ratio of inhibitory activity of etoposide to test compound for inhibition of human topoisomerase-2 alpha at 20 uM using supercoiled pBR322 DNA as substrate after 30 mins by ethidium bromide staining based agarose gel electrophoresis method relative to control
Sequence of DNA topoisomerase 2-alpha (Homo sapiens) (P11388 whole entry): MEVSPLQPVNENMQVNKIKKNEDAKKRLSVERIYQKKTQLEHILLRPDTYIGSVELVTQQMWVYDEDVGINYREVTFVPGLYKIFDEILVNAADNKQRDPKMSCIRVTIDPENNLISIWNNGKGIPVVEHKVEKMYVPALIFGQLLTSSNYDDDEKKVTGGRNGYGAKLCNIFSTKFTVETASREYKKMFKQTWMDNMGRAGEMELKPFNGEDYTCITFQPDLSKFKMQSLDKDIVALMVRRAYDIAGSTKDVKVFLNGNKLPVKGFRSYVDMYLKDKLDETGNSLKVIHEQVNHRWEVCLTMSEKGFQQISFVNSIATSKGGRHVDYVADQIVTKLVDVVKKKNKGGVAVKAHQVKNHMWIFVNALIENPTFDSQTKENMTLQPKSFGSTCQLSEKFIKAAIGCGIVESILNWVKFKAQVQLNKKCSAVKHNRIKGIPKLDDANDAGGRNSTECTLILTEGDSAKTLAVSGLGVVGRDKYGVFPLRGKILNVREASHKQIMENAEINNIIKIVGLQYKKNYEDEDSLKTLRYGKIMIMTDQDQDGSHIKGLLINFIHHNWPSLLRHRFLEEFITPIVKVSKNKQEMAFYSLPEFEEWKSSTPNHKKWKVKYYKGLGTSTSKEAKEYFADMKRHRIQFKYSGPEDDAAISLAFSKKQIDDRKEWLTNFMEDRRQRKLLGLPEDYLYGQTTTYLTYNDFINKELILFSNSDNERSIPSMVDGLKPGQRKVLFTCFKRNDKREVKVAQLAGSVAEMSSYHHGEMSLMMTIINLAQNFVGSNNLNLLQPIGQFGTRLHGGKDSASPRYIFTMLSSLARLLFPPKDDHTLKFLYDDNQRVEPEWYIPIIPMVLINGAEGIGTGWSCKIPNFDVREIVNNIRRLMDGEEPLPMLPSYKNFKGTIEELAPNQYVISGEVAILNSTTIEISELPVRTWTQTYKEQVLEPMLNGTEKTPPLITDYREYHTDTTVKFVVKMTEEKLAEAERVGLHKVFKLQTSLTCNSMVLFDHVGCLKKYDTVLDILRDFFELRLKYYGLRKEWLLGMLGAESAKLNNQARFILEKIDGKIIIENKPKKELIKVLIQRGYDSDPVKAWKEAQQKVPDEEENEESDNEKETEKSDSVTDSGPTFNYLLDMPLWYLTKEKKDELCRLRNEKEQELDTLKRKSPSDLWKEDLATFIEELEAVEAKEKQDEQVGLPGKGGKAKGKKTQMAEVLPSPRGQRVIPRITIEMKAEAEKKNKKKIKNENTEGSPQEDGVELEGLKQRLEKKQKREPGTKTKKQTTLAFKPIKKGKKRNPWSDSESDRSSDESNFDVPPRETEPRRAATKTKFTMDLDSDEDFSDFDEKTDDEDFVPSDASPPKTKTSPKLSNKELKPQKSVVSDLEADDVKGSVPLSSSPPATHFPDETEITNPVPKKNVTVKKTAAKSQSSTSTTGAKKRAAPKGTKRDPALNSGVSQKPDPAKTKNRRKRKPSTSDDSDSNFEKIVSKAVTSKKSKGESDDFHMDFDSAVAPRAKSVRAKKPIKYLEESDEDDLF

[8] = molecular target: DNA topoisomerase 2-alpha (Homo sapiens) (UniProt P11388); experiment: Inhibition of human topoisomerase-2 alpha assessed as reduction in conversion of super coiled plasmid DNA to relaxed DNA at 100 uM using supercoiled pBR322 DNA as substrate after 30 mins by ethidium bromide staining based agarose gel electrophoresis method relative to control
[9] = molecular target: DNA topoisomerase 2-alpha (Homo sapiens) (UniProt P11388); experiment: Inhibition of human topoisomerase-2 alpha assessed as reduction in conversion of super coiled plasmid DNA to relaxed DNA at 20 uM using supercoiled pBR322 DNA as substrate after 30 mins by ethidium bromide staining based agarose gel electrophoresis method relative to control
[10] = molecular target: DNA topoisomerase 2-alpha (Homo sapiens) (UniProt P11388); experiment: Potency index, ratio of inhibitory activity of etoposide to test compound for inhibition of human topoisomerase-2 alpha at 100 uM using supercoiled pBR322 DNA as substrate after 30 mins by ethidium bromide staining based agarose gel electrophoresis method relative to control

SMILES	GI50 ([1]; Homo sapiens, PC-3, 72 h) [µM]	GI50 ([2]; Homo sapiens, MDA-MB-231, 72 h) [µM]	GI50 ([3]; Homo sapiens, NUGC-3, 72 h) [µM]	GI50 ([4]; Homo sapiens, ACHN, 72 h) [µM]	GI50 ([5]; Homo sapiens, NCI-H23, 72 h) [µM]	GI50 ([6]; Homo sapiens, HCT-15, 72 h) [µM]	GI50 [1] [µM]	GI50 [2] [µM]	GI50 [3] [µM]	GI50 [4] [µM]	GI50 [5] [µM]	GI50 [6] [µM]	Ratio [7]	inhibition [8] [%]	inhibition [9] [%]	Ratio [10]
COc1ccc(-c2cc(-c3ccc4ccccc4c3)nc3cnc4ccccc4c23)cc1	> 10	> 10	> 10	> 10	> 10	> 10	–	–	–	–	–	–	–	–	–	–
COc1ccc(-c2cc(-c3ccccc3)nc3cnc4ccccc4c23)cc1	3.07	7.28	5.83	2.13	4.02	4.38	–	–	–	–	–	–	–	–	–	–
COc1ccc(-c2c(C)c(-c3ccccc3Br)nc3cnc4ccccc4c23)cc1	> 10	> 10	> 10	> 10	> 10	> 10	–	–	–	–	–	–	–	–	–	–
CCCCCCn1cc(-c2cc(-c3ccc(OC)cc3)c3c(cnc4ccccc43)n2)c2ccccc21	> 10	> 10	> 10	> 10	> 10	> 10	–	–	–	–	–	–	–	–	–	–
COc1ccc(-c2cc(-c3cccc4ccccc34)nc3cnc4ccccc4c23)cc1	–	–	–	–	–	–	1.57	1.51	1.68	2.25	1.81	1.98	–	–	–	–
COc1ccc(-c2cc(-c3ccc(Br)cc3)nc3cnc4ccccc4c23)cc1	6.75	2.58	1.85	4.95	1.62	1.97	–	–	–	–	–	–	–	–	–	–
COc1ccc(-c2cc(-c3ccc(C(F)(F)F)cc3C(F)(F)F)nc3cnc4ccccc4c23)cc1	> 10	> 10	> 10	> 10	> 10	> 10	–	–	–	–	–	–	–	–	–	–
COc1ccc(-c2cc(-c3ccc([N+](=O)[O-])cc3)nc3cnc4ccccc4c23)cc1	–	–	–	–	–	–	> 10	> 10	> 10	> 10	> 10	> 10	–	–	–	–
COc1ccc(-c2cc(-c3ccc(OC)cc3)c3c(cnc4ccccc43)n2)cc1	> 10	> 10	> 10	> 10	> 10	> 10	–	–	–	–	–	–	–	–	–	–
COc1ccc(-c2cc(-c3ccc(N(C)C)cc3)nc3cnc4ccccc4c23)cc1	2.98	2.3	1.95	1.98	1.72	1.86	–	–	–	–	–	–	1.2	91.3	42.4	1.3
COc1ccc(-c2cc(-c3cccs3)nc3cnc4ccccc4c23)cc1	6.88	7.69	2	5.65	3.3	7.06	–	–	–	–	–	–	–	–	–	–
